Test results from ChEMBL document CHEMBL6074649, “An insight into recent developments in imidazole based heterocyclic compounds as anticancer agents: Synthesis, SARs, and mechanism of actions” (Eur J Med Chem, 2024).

What was measured:
[1] = tested on: MCF7; assay: Cytotoxicity against human MCF7 cells; assay type: functional, cell-based
[2] = tested on: B16-F10; assay: Cytotoxicity against mouse B16-F10 cells; assay type: functional, cell-based
[3] = Cytotoxicity against mouse L929 cells; assay type: toxicity, cell-based
[4] = tested on: HeLa; assay: Cytotoxicity against human HeLa cells; assay type: functional, cell-based
[5] = Cytotoxicity against mouse EMT6/AR1 cells; assay type: functional, cell-based
[6] = Cytotoxicity against human MCF-10A cells; assay type: toxicity, cell-based
[7] = tested on: A549; assay: Cytotoxicity against human A549 cells; assay type: functional, cell-based
[8] = tested on: PC-3; assay: Anticancer activity against human PC-3 cells at 100 uM relative to control; assay type: functional
[9] = tested on: HCT-116; assay: Anticancer activity against human HCT-116 cells at 100 uM relative to control; assay type: functional
[10] = tested on: NCI-H1299; assay: Anticancer activity against human NCI-H1299 cells at 100 uM relative to control; assay type: functional
[11] = tested on: MG-63; assay: Antiproliferative activity against human MG-63 cells; assay type: functional, cell-based
[12] = tested on: A549; assay: Antiproliferative activity against human A549 cells assessed as reduction in cell growth; assay type: functional, cell-based
[13] = Antiproliferative activity against HEK293 cells; assay type: toxicity, cell-based; conditions: human
[14] = tested on: MCF7; assay: Antiproliferative activity against human MCF7 cells; assay type: functional, cell-based
[15] = tested on: MDA-MB-231; assay: Antiproliferative activity against human MDA-MB-231 cells assessed as reduction in cell viability after 48 hrs by SRB assay; assay type: functional, cell-based; conditions: MDA-MB-231, 48 h
[16] = Antiproliferative activity against human IGR-39 cells assessed as reduction in cell viability after 48 hrs by SRB assay; assay type: functional, cell-based; conditions: IGR-39, 48 h
[17] = tested on: SiHa; assay: Antiproliferative activity against human SiHa cells; assay type: functional, cell-based
[18] = tested on: A549; assay: Antiproliferative activity against human A549 cells; assay type: functional, cell-based
[19] = Antiproliferative activity against human BJ cells; assay type: toxicity, cell-based

COc1cc(C(=O)c2[nH]c(N)nc2-c2cccs2)cc(OC)c1OC
IC50 [1]: 121 nM
IC50 [2]: 416 nM
IC50 [3]: 1660 nM
IC50 [4]: 36 nM
IC50 [5]: 2430 nM
IC50 [6]: 1890 nM
IC50 [7]: 112 nM

O=C(CS(=O)(=O)NS(=O)(=O)CC(=O)Nc1nc(-c2ccc(Cl)cc2)c[nH]1)Nc1nc(-c2ccc(Cl)cc2)c[nH]1
inhibition at 100 µM [8]: 32.1%
inhibition at 100 µM [9]: 41.4%
inhibition at 100 µM [10]: 21.4%

COc1ccc2[nH]c(=O)c(-c3nc(-c4ccccc4)c(-c4ccccc4)[nH]3)cc2c1
IC50 [11]: 62 µM
IC50 [12]: 39.4 µM
IC50 [13]: 86.5 µM
IC50 [14]: 50.1 µM

CCn1c(-c2ccc(F)cc2)cn(-c2cccc(S(N)(=O)=O)c2)c1=O
EC50 [15]: 20.5 µM
EC50 [16]: 27.8 µM

CN1CCN(c2ccc(-c3nc(-c4ccc(N5C(=O)c6cccc7c(N8CCN(C)CC8)ccc(c67)C5=O)cc4)[nH]c3-c3ccc(N4CCN(C)CC4)cc3)cc2)CC1
IC50 [17]: 5.4 µM
IC50 [18]: 6.5 µM
IC50 [19]: 13.3 µM
